Assay results published in ChEMBL document CHEMBL4229400, “Covalent inhibitors of nicotinamide N-methyltransferase (NNMT) provide evidence for target engagement challenges in situ” (Bioorg Med Chem Lett, 2018).
Calls of active or inactive are those of the source. No cut-off for these calls is given here.

How the values were obtained:
[1] = target: T1, Zyxin (Homo sapiens) (UniProt Q15942); test: Binding affinity to ZYX cysteine residue in human 786-O cell soluble proteomic lysate at 5 uM incubated for 1 hr followed by cell lysis by IA-alkyne probe based isoTOP-ABPP analysis
T1 sequence (whole entry): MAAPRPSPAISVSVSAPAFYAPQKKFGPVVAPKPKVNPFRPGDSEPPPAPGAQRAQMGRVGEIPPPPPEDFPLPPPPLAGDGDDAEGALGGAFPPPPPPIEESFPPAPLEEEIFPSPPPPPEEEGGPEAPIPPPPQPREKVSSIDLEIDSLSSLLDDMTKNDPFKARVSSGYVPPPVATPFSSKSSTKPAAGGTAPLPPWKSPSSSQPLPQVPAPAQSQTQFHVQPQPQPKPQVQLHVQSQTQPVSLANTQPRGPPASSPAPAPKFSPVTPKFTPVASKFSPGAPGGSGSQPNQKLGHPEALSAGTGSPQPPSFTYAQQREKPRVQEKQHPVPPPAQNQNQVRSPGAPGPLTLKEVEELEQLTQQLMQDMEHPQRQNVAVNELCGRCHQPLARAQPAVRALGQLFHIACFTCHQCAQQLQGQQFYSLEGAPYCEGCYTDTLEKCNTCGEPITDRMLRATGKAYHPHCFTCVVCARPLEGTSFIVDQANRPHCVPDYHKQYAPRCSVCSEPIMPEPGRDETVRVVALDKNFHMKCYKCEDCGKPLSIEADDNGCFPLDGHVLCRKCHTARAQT

[2] = target: T2, Mitochondrial-processing peptidase subunit alpha (Homo sapiens) (UniProt Q10713); test: Binding affinity to PMPCA cysteine residue in human 786-O cell soluble proteomic lysate at 5 uM incubated for 1 hr followed by cell lysis by IA-alkyne probe based isoTOP-ABPP analysis
T2 sequence (whole entry): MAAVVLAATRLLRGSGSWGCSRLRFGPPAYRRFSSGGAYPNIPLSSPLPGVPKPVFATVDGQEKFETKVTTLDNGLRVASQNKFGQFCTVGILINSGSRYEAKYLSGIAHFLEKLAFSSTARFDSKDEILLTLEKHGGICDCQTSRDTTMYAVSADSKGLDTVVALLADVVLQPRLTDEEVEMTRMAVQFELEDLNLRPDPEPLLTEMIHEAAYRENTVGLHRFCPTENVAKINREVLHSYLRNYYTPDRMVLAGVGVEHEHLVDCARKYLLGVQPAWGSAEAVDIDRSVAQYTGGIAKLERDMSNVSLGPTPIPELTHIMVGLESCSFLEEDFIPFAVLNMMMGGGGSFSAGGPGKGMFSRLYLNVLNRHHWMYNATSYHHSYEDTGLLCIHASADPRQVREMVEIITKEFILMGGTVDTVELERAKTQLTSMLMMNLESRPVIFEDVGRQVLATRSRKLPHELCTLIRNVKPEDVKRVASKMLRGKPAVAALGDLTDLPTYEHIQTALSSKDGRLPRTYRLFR

[3] = target: T3, Glutathione S-transferase omega-1 (Homo sapiens) (UniProt P78417); test: Binding affinity to GSTO1 cysteine residue in human 786-O cell soluble proteomic lysate at 5 uM incubated for 1 hr followed by cell lysis by IA-alkyne probe based isoTOP-ABPP analysis
T3 sequence (whole entry): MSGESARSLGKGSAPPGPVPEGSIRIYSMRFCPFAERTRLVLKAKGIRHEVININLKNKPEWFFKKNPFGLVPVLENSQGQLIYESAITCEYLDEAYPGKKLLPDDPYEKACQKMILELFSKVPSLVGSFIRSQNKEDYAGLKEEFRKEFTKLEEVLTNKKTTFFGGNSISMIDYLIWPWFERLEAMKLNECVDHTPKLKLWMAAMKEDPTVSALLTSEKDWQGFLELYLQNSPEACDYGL

[4] = target: T4, Nicotinamide N-methyltransferase (Homo sapiens) (UniProt P40261); test: Binding affinity to NNMT C165 residue in human 786-O cell lysate at 5 uM incubated for 4 hrs followed by cell lysis by IA-alkyne probe based isoTOP-ABPP analysis
T4 sequence (whole entry): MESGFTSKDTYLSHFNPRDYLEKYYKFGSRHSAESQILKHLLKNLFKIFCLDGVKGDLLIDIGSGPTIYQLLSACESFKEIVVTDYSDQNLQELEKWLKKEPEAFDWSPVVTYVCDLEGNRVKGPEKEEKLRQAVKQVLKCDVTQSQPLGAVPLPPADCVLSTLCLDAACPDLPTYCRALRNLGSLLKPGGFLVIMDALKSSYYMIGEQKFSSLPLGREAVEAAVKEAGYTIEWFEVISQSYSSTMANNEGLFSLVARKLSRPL

[5] = target: T5, Heme oxygenase 2 (Homo sapiens) (UniProt P30519); test: Binding affinity to HMOX2 cysteine residue in human 786-O cell lysate at 5 uM incubated for 1 hr followed by cell lysis by IA-alkyne probe based isoTOP-ABPP analysis
T5 sequence (whole entry): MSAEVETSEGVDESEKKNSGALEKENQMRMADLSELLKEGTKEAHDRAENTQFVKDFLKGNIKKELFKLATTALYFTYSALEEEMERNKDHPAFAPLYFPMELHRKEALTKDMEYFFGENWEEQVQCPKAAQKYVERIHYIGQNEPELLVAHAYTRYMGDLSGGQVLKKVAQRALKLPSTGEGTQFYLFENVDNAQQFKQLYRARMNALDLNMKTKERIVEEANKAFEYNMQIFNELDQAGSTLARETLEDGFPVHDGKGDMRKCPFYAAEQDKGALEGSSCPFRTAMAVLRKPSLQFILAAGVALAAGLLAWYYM

| Activity [1] | Activity [2] | Activity [3] | Activity [4] | Activity [5] | SMILES |
| --- | --- | --- | --- | --- | --- |
| Active | Active | – | – | – | O=C(Nc1cccnc1Cl)c1cc(N(CCCc2ccccc2)C(=O)CCl)cc(C(F)(F)F)c1 |
| – | – | Active | inactive | Active | CC(C)CCN(C(=O)CCl)c1cc(C(=O)NCc2cccc([N+](=O)[O-])c2)cc(C(F)(F)F)c1 |
